Measured values published in US8399696B2, “Functionalized biodegradable triclosan monomers and oligomers for controlled release” (Bezwada Biomedical, LLC, priority 2007, dated 2013).

Experiment: Hydrolysis of 500 mg (0.5 grams) of compound in 50 mL buffer (pH 9 or pH 7) at 50 or 100° C.
Assay type: physicochemical
Procedure: Into a clean and dry 1 liter, 3 necked round bottom flask equipped with a nitrogen inlet was added 15 grams of triclosan in 150 ml of ethyl acetate. 15 ml of pyridine was added to the reaction mixture and the reaction mixture was left for stifling at room temperature for 10 minutes. To this stirring solution was added dropwise 24 grams of stearic acid glycolic acid chloride 27 dissolved in 30 ml of ethyl acetate and the reaction was left for stirring at room temperature for twenty four hours following which the […] salt was filtered off and the ethyl acetate layer was washed with 5% solution of sodium bicarbonate followed by drying using sodium sulphate. Ethyl acetate was distilled off using high vacuum distillation to yield 22 grams of crude 28. […]

[1] = 0.5 grams in 50 mL pH 9 buffer, 50° C.
[2] = 500 mg in 50 mL pH 9 buffer, 100° C.

| Compound | extent of hydrolysis by TLC in 48 hours (0.5 grams in 50 mL pH 7 buffer, 50° C.) | extent of hydrolysis by TLC in 48 hours (0.5 grams in 50 mL pH 7 buffer, 100° C.) | time to hydrolysis (Hydrolyzed in) [1] | time to hydrolysis (Hydrolyzed in) [2] | extent of hydrolysis in 53 hours (0.5 grams in 50 mL pH 7 buffer, 100° C., 53 hours) |
| --- | --- | --- | --- | --- | --- |
| O=C(COc1ccc(OCC(=O)Oc2cc(Cl)ccc2Oc2ccc(Cl)cc2Cl)cc1)Oc1cc(Cl)ccc1Oc1ccc(Cl)cc1Cl [Compound 19, {4-[5-Chloro-2-(2,4-dichloro-phenoxy)-phenoxycarbonylmethoxy]-phenoxy}-acetic acid 5-chloro-2-(2,4-dichloro-phenoxy)-phenyl ester] | By TLC it hydrolyzed around 5% in 48 hours | By TLC it hydrolyzed around 15% in 48 hours | Hydrolyzed in 150 hours |  |  |
| O=C(COCCOc1ccc(OCCOCC(=O)Oc2cc(Cl)ccc2Oc2ccc(Cl)cc2Cl)cc1)Oc1cc(Cl)ccc1Oc1ccc(Cl)cc1Cl [Example 15, [2-(4-{2-[5-Chloro-2-(2,4-dichloro-phenoxy)-phenoxycarbonylmethoxy]-ethoxy}phenoxy)-ethoxy]-acetic acid 5-chloro-2-(2,4-dichloro-phenoxy)-phenyl ester] |  |  | Hydrolyzed in 150 hours |  |  |
| CCCCCCCCCCCCCCCCCC(=O)OCC(=O)Oc1cc(Cl)ccc1Oc1ccc(Cl)cc1Cl [Example 28, Triclosan Glycolic Acid Stearate] |  |  |  | 27 h |  |
| O=C(COCC(=O)Oc1cc(Cl)ccc1Oc1ccc(Cl)cc1Cl)Oc1cc(Cl)ccc1Oc1ccc(Cl)cc1Cl [Example 20] |  |  | Hydrolyzed in 102 hours | Hydrolyzed in 25 hours | Hydrolyzed 50% only in 53 hours |
